Assays:
[1] = test system: time to first ejaculation of male rats; assay: Time until first ejaculation in male rats, 5-HT1A-receptor antagonist in conjunction with serotonergic agent (Example 3); type: in vivo; conditions: antagonist in conjunction with Citalopram, Fluoxetine, Ifoxetine, Paroxetine or Zimelidine shortly before sexual activity, relative to the rat's own average without treatment
Description: In a study with male rats, 10 different 5-HT1A-receptor antagonists are administered in conjunction with five different serotonergic agents shortly before sexual activity.

[2] = test system: male rat sexual behavior; assay: Male rat sexual behavior model (sexually trained males, 30-min access to receptive females); type: in vivo; conditions: for behavioral effects on sexual behavior, antagonist alone: separate experiments, not shown
From the text: A model of sexual behavior in male rats was developed that is predictive of SSRI-effects on human male sexual behavior (Bijlsma et al. 2014; Olivier et al. 2006; 2017). In this male rat sexual behavior model, SSRIs inhibit sexual behavior, but only upon chronic administration thereby mimicking and modeling the SSRI effects in human males.
Male rats were sexually trained till they obtained a stable sexual performance (on average 2 ejaculations per 30-min, the standard testing duration). Animals were injected intraperitoneally 30-min before testing after which males had 30 min access to the females that were behaviorally sexually receptive. A trained researcher scored the sexual behavior of the males according to published and accepted methods (Chan et al. 2010).

[3] = molecular target: T1, 5-HT1A-receptor (Homo sapiens, UniProt P08908); conditions: healthy human volunteers, cited from earlier work
T1 construct: host or cells: brain of healthy human volunteers (in vivo PET)
T1 sequence (P08908 1-422): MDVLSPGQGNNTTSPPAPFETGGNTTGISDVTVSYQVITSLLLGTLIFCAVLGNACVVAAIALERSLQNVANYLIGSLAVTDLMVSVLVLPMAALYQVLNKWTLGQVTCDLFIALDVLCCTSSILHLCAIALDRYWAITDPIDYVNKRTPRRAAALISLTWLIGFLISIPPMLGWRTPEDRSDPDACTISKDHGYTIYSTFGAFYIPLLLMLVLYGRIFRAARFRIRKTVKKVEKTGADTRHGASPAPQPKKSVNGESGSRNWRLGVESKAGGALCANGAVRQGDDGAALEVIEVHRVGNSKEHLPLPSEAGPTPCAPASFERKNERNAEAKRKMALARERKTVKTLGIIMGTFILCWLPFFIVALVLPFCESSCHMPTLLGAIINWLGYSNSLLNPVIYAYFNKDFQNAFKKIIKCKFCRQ

[4] = test system: 5-HT1A receptor; conditions: cited from earlier work

C=CCc1ccccc1OCC(O)CNC(C)C (centres unmarked) [Alprenolol]
Potential average increase in time to first ejaculation (%) [1]: 75%

O=C1c2ccccc2S(=O)(=O)N1CCCCN1CCN(c2cc(Cl)cc3c2OCCO3)CC1 [DU125530, 2-[4-[4-(7-chloro-2,3-dihydro-1,4-benzodi-oxin-5-yl)-1-piperazinyl]butyl]-1,2-benzisothiazol-3(2H)-one-1,1-dioxide]
behavioral effects on sexual behavior, antagonist alone ([2]; DU125530 alone at doses up to 20 mg/kg): no behavioral effects on sexual behavior | effect on male rat sexual behavior ([2]; acute DU125530 20 mg/kg in combination with acute paroxetine 5 mg/kg, intraperitoneally 30 min before testing): strongly inhibited male rat sexual behavior | effects when administered alone ([2]; administered alone): no effects | pharmacological activity when combined with paroxetine ([2]; combined with paroxetine): pharmacologically active | safety ([2]; rat, in vivo): safe | Potential average increase in time to first ejaculation (%) [1]: 254% | 5-HT1A-receptor occupancy ([3]; 10 to 40-mg daily dose range, 2 h post the last dose, dose-dependent): 0-72% | side effects ([3]; 10 to 40-mg daily dose range): minor side effects | tolerability ([3]; 10 to 40-mg daily dose range): well tolerated | correlation of occupancy with plasma levels [3]: correlated highly | 5-HT1A receptor antagonistic activities in vitro and in vivo ([4]; Mos et al. 1997): selective 5-HT1A receptor antagonistic activities | biological activity given on itself ([4]; given on itself, Joordens et al. 1997): without biological activity | 5-HT1A receptor antagonistic activity in several animal models ([4]; several animal models): nice and reliable 5-HT1A receptor antagonistic activity

c1ccc(C(c2ccccc2)N2CCN(CCCC3(c4ccccc4)OCCO3)CC2)cc1 [Dotarizine]
Potential average increase in time to first ejaculation (%) [1]: 67%

CSc1ccc2c(c1)C(N1CCN(C)CC1)Cc1ccccc1S2 (centres unmarked) [Methiothepin]
Potential average increase in time to first ejaculation (%) [1]: 97%

OC(CNCC(O)C1CCc2cc(F)ccc2O1)C1CCc2cc(F)ccc2O1 (centres unmarked) [Nebiovolol]
Potential average increase in time to first ejaculation (%) [1]: 95%

CC(C)NCC(O)COc1cccc2[nH]ccc12 (centres unmarked) [Pindolol]
Potential average increase in time to first ejaculation (%) [1]: 46%

CC(C)NCC(O)COc1cccc2ccccc12 (centres unmarked) [Propranolol]
Potential average increase in time to first ejaculation (%) [1]: 87%

Cc1nc2n(c(=O)c1CCN1CCC(c3noc4cc(F)ccc34)CC1)CCCC2 [Risperidone]
Potential average increase in time to first ejaculation (%) [1]: 102%

O=C(CCCN1CCC2(CC1)C(=O)NCN2c1ccccc1)c1ccc(F)cc1 [Spiperone]
Potential average increase in time to first ejaculation (%) [1]: 80%

COc1ccccc1N1CCN(CCN(C(=O)C2CCCCC2)c2ccccn2)CC1 [WAY100,635, reference compound]
effect on male rat sexual behavior ([2]; WAY100,635 (0.3 mg/kg) in combination with paroxetine (5 mg/kg), own data, compared with DU125530 + paroxetine): comparable inhibition | behavioral effects on sexual behavior, antagonist alone ([2]; WAY100,635 alone at doses up to 1 mg/kg, IP): no behavioral effects on sexual behavior

Reference: patent US20220265641A1, “SEROTONERGIC AGENT AND 5-HT1A-RECEPTOR ANTAGONIST” (ATLAS PHARMACEUTICALS BV, priority 2019, published 2022)
